Assay results: patent US7365056B2, “Substituted 9a-N-(N′-(sulfonyl)phenylcarbamoyl)derivatives of 9-deoxo-9-dihydro-9a-aza-9a-homoerithomycin A and 5-0-desosaminyl-9-deoxo-9-dihydro-9-a-aza-9a-homoerithronolide A” (GlaxoSmithKline istrazivacki centar Zagreb d.o, priority 2002, dated 2008)
Converted amounts (≈) assume the structure as drawn.

Tested on: S. pyogenes iMLS resistante strain
Experiment: MIC by broth dilution (NCCLS M7-A2), S. pyogenes iMLS resistant strain
Assay type: cell-based
Conditions: MIC = concentration showing 90% growth inhibition, tested range 64 to 0.125 μg/ml
Procedure: Final concentration of test substances were in range from 64 to 0.125 μg/ml. MIC levels for all compound were determinated on panel of susceptible and resistant Gram positive bacterial strains (S. aureus, S. pneumoniae and S. pyogenes) and on Gram negative strains (E. coli, H. influenzae, E. faecalis, M. catarrhalis).

MIC [µg/mL] | Structure (SMILES)
2 (≈ 2.14 µM) | CCC1OC(=O)C(C)C(OC2CC(C)(OC)C(O)C(C)O2)C(C)C(OC2OC(C)CC(N(C)C)C2O)C(C)(O)CC(C)CN(C(=O)Nc2ccc(S(N)(=O)=O)cc2)C(C)C(O)C1(C)O (centres unmarked) [Example 3, 9-Deoxo-9-dihydro-9a-N-{[4-(aminosulfonyl)phenyl]carbamoyl}-9a-aza-9a-homoerithromycin A]
2 (≈ 1.98 µM) | CCC1OC(=O)C(C)C(OC2CC(C)(OC)C(O)C(C)O2)C(C)C(OC2OC(C)CC(N(C)C)C2O)C(C)(O)CC(C)CN(C(=O)Nc2ccc(S(=O)(=O)Nc3ccccc3)cc2)C(C)C(O)C1(C)O (centres unmarked) [Example 4, 9-Deoxo-9-dihydro-9a-N-{N′-[4-(phenylaminosulfonyl)phenyl]carbamoyl}-9a-aza-9a-homoerithromycin A]
